This is an account of results in patent US20210260055A1, “TOPICAL FORMULATIONS OF DGAT1 INHIBITORS AND THEIR METHODS OF USE” (Dermavant Sciences GmbH, priority 2018, published 2021).

Usually IC50 stands for the concentration that gives 50% inhibition. Read a high IC50 as lower potency.

Structures are written as SMILES.

The test system of one experiment is human sebocyte cell line. As to the kind of experiment: Nile Red Neutral Lipid Accumulation Assay. The format is cell-based. The conditions noted are these: day 3 of treatment, with 1 μM T0901317 and 1 μM insulin. Here is the method:
This assay examines the ability of compounds to stimulate or inhibit lipid accumulation in human sebocyte cell line. Cells were seeded in tissue culture treated black clear bottom plates. Compounds were added in the presence of Liver X Receptor (LXR) agonist (T0901317) and 1 μM insulin for 3 days and 5 days. For the 5 day treatment fresh compounds were added at Day 3. After the treatment period nile red dye was added and the relative fluorescence determined for both total and neutral lipids. The neutral/total lipid ratio was calculated and obtained values were normalized to both the Cell Titer Blue viability reagent.
Protocol—Day 1: Human immortalized sebocytes were seeded at 10,000 cells/well in 96-well black, clear bottom plates in Sebocyte Growth Medium and allowed to attach overnight at 37° C. […] 3) The relative fluorescence (RFU) of the incorporated stain was determined under 2 parameters: 540ex/620em with no cutoff (Total Lipid), and 485ex/555em with a 515 cutoff (Neutral Lipid) using bottom reads. […] Cell titer blue reagent (100 was then added to each well and the cells were allowed to incubate for 2 hours at 37° C., 5% CO2. 5) The RFU value was determined at 560ex/590em with a 570 cutoff using a top read.
Data Analysis—Cell viability is presented as cell titer blue fluorescence reading (RFU) for each treatment. […] Minimum and maximum values are determined by UNT and LXR+INS controls. […]

For experiment [1], the system named is Human immortalized sebocytes. The experiment in a line: Cleaved Caspase 3 Assay. To be noted: for cleaved caspase 3: any concentration, 2, 3 and 5 day treatment; for sebocyte apoptosis: conditions of this in vitro assay. The format is cell-based. Here is the method:
This assay examines the ability of compounds to induce apoptosis by measuring Caspase 3 generated by proteolytic processing. Cells were seeded in tissue culture treated clear bottom plates. Compounds were added in the presence of Liver X Receptor (LXR) agonist (T0901317) and 1 μM insulin for 2, 3 and 5 days. For the 5 day treatment fresh compounds were added at Day 3. After the treatment period lysates were prepared according to the manufacturer's instructions and frozen at −80° C. until the day of the assay.
Protocol—Day 1: Human immortalized sebocytes were seeded at 10,000 cells/well in 96-well, clear bottom plates in Sebocyte Growth Medium and allowed to attach overnight at 37° C. Day 2: Medium was refreshed by removing seeding medium and adding fresh Sebocyte Growth Medium. Cells were maintained at 37° C. to allow degradation of the temperature sensitive SV40 large T antigen. Day 4: 1000× stocks (in DMSO) of each compound were prepared (3 mM and 100 μM) and were diluted 1:1000 in Sebocyte Treatment Media containing 1 μM T0901317 and 1 μM Insulin to give a final top concentration of 3000 nM and 100 nM for further 10-fold dilutions in the same medium according to the plate map below. The cell medium was removed and replaced with Sebocyte Treatment Medium containing 1 μM T0901317, 1 μM Insulin, compound dilution, or vehicle (DMSO) as per plate maps for a 2, 3 and 5 day treatment. For untreated controls, media was removed and replaced with Sebocyte Treatment Media only (no T091317 or Insulin). For the 5 day treatment cells were retreated as described above on Day 7. Day 6, 7 or Day 9: 1) After treatment, the plate was centrifuged at 300×g for 10 minutes. 2) After centrifugation, the medium was removed the cells rinsed with ice-cold PBS and then centrifuged again at 300×g for 10 minutes. 3) After centrifugation the PBS was removed and replaced with 30 μl/well and left on ice for 5 minutes. 4) After 5 minutes, the lysates were frozen at −80° C. until the day of the assay. Day of Assay: Buffers and reagents were prepared according to the manufacturer's instructions. 1) 25 μl of lysate was added to the corresponding well of a 96 well black clear bottom plates. 2) 200 μl of the prepared substrate solution B was added to each well. 3) After 1 hr incubation in the dark, the relative fluorescence was determined using the following settings: 380ex/420em.
Data analysis—IC50s were determined for each test sample by using appropriate curve fits in GraphPad Prism (v.7). […]

The compound `Cc1nc(C)c(-c2ccc([C@H]3CC[C@H](CC(=O)O)CC3)cc2)nc1C(N)=O` [DMVT-503, 2-((1R,4R)-4-(4-(6-carbamoyl-3,5-dimethylpyrazin-2-yl)phenyl)cyclohexyl)acetic acid] yielded an IC50 in the experiment with human sebocyte cell line (Homo sapiens, 72 h) of 0.0252 µM. Besides, in experiment [1], the “cleaved caspase 3” value is given as “No significant cleaved caspase 3 detected” and the sebocyte apoptosis result is on record as “did not induce sebocyte apoptosis”.

`CC1=C(/C=C/C(C)=C/C=C/C(C)=C\C(=O)O)C(C)(C)CCC1` [Mix 13-cis-RA, 13-cis-retinoic Acid, reference compound]: half-maximal inhibition with human sebocyte cell line (IC50) was put at 0.829 µM. Also, in experiment [1], the “cleaved caspase 3” value is recorded as “No significant cleaved caspase 3 detected” and the sebocyte apoptosis result is listed as “did not induce sebocyte apoptosis”.
